Reference: US11117903B2, “Pyridine derivatives” (Hoffmann-La Roche Inc., priority 2017, dated 2021)
Like-named read-outs stand apart in the source and are kept apart here.

Target: T1, human CB2 receptors (Homo sapiens, UniProt P34972)
T1 construct: expressed in transfected cells; host or cells: CHO cells
Assay: cAMP assay human CB2
Format: cell-based
Conditions: for Percent relative efficacy compared to the reference agonist CP55940 for which this value is set to +100%: negative values = inverse agonists, CP55940 = +100%
Procedure: The growth medium was exchanged with Krebs Ringer Bicarbonate buffer with 1 mM IBMX and incubated at 30° C. for 30 min. Compounds were added to a final assay volume of 100 μl and incubated for 30 min at 30° C. […] The time-resolved energy transfer is measured by a TRF reader (Evotec Technologies GmbH), equipped with a ND:YAG laser as excitation source. The plate is measured twice with the excitation at 355 nm and at the emission with a delay of 100 ns and a gate of 100 ns, total exposure time 10s at 730 (bandwidth 30 nm) or 645 nm (bandwidth 75 nm), respectively.
EC50 values were determined using Activity Base analysis (ID Business Solution, Limited).

[1] = CHO cells expressing human CB2 receptors, read-out: cAMP assay human CB2 EC50

T1 sequence (P34972 whole entry): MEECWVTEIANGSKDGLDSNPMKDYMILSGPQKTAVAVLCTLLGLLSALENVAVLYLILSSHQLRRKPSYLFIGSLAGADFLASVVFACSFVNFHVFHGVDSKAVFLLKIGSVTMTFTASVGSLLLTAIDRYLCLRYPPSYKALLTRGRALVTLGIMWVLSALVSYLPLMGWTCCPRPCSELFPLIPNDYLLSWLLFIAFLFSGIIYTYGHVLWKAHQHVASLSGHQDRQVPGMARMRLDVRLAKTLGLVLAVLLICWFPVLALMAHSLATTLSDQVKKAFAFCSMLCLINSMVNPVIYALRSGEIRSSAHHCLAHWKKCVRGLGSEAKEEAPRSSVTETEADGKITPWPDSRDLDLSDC

| SMILES | EC50 [nM] | Percent relative efficacy compared to the reference agonist CP55940 for which this value is set to +100% [%] | EC50 [1] [nM] |
| --- | --- | --- | --- |
| CC(C)C[C@@H](CO)NC(=O)c1cc(-c2ccc(Cl)cc2Cl)c(OCC2CC2)cn1 [Example 1, 5-(Cyclopropylmethoxy)-4-(2,4-dichlorophenyl)-N-[(2S)-1-hydroxy-4-methylpentan-2-yl]pyridine-2-carboxamide] | 15.2 | −40.1 | – |
| O=C(N[C@@H]1CCCC[C@@H]1O)c1cc(-c2ccc(Cl)cc2)c(OCC2CC2)cn1 [Example 2, 4-(4-Chlorophenyl)-5-(cyclopropylmethoxy)-N-[(1R,2S)-2-hydroxycyclohexyl]pyridine-2-carboxamide] | 257 | −90.6 | – |
| O=C(N[C@H]1CCCC[C@H]1O)c1cc(-c2ccc(Cl)cc2)c(OCC2CC2)cn1 [Example 3, 4-(4-Chlorophenyl)-5-(cyclopropylmethoxy)-N-[(1 S,2R)-2-hydroxycyclohexyl]pyridine-2-carboxamide] | 46.6 | −85.1 | – |
| CCC(CC)(NC(=O)c1cc(-c2ccc(Cl)cc2)c(OCC2CC2)cn1)C(=O)OC [Example 4, Methyl 2-[[4-(4-chlorophenyl)-5-(cyclopropylmethoxy)pyridine-2-carbonyl]amino]-2-ethylbutanoate] | 14.4 | −70.5 | – |
| CCC(CC)(NC(=O)c1cc(-c2ccc(Cl)c(Cl)c2)c(OCC2CC2)cn1)C(=O)OC [Example 5, Methyl 2-[[5-(cyclopropylmethoxy)-4-(3,4-dichlorophenyl)pyridine-2-carbonyl]amino]-2-ethylbutanoate] | 6.9 | −128.6 | – |
| CO[C@H]1CCCC[C@H]1NC(=O)c1cc(-c2ccc(Cl)cc2)c(OCC2CC2)cn1 [Example 6, 4-(4-chlorophenyl)-5-(cyclopropylmethoxy)-N-[(1R,2S)-2-methoxycyclohexyl]pyridine-2-carboxamide] | 124 | −102.9 | – |
| O=C(N[C@@H](CO)c1ccccc1)c1cc(OCC2CC2)c(Cl)cn1 [Example 7, 5-Chloro-4-(cyclopropylmethoxy)-N-[(1R)-2-hydroxy-1-phenylethyl]pyridine-2-carboxamide] | 497 | −41.7 | – |
| CNC(=O)[C@@H](NC(=O)c1cc(OCC2CC2)c(Cl)cn1)C(C)(C)C [Example 8, 5-Chloro-4-(cyclopropylmethoxy)-N-[(2S)-3,3-dimethyl-1-(methylamino)-1-oxobutan-2-yl]pyridine-2-carboxamide] | 4.4 | −141.9 | – |
| O=C(N[C@@H](c1ccccn1)C(F)(F)F)c1cc(OCC2CC2)c(Cl)cn1 [Example 9, (−) 5-Chloro-4-(cyclopropylmethoxy)-N-[2,2,2-trifluoro-1-pyridin-2-ylethyl]pyridine-2-carboxamide] | 296 | −114.7 | – |
| O=C(N[C@H](c1cccnc1)C(F)(F)F)c1cc(OCC2CC2)c(Cl)cn1 [Example 10, 5-Chloro-4-(cyclopropylmethoxy)-N-[(1R)-2,2,2-trifluoro-1-pyridin-3-ylethyl]pyridine-2-carboxamide] | 1560 | −36.8 | – |
| CNC(=O)[C@H](CC(C)C)NC(=O)c1cc(OCC2CC2)c(Cl)cn1 [Example 11, 5-Chloro-4-(cyclopropylmethoxy)-N-[(2S)-4-methyl-1-(methylamino)-1-oxopentan-2-yl]pyridine-2-carboxamide] | 181 | −28.5 | – |
| CNC(=O)[C@@H](CC(C)C)NC(=O)c1cc(OCC2CC2)c(Cl)cn1 [Example 12, 5-Chloro-4-(cyclopropylmethoxy)-N-[(2R)-4-methyl-1-(methylamino)-1-oxopentan-2-yl]pyridine-2-carboxamide] | 3230 | −40.1 | – |
| CNC(=O)[C@@H](NC(=O)c1cc(OCC2(C)COC2)c(C2CC2)cn1)C(C)(C)C [Example 13, 5-Cyclopropyl-N-[(2S)-3,3-dimethyl-1-(methylamino)-1-oxobutan-2-yl]-4-[(3-methyloxetan-3-yl)methoxy]pyridine-2-carboxamide] | – | −158.8 | 26.1 |
| CC(C)(C)c1nc(-c2cc(OCC3CC3)c(N3CC4(COC4)C3)cn2)no1 [Example 14, 6-[6-(5-tert-Butyl-1,2,4-oxadiazol-3-yl)-4-(cyclopropylmethoxy)pyridin-3-yl]-2-oxa-6-azaspiro[3.3]heptane] | 36.7 | −65.9 | – |
| CC(C)(C)OC(=O)N1CCC[C@H]1COc1cc(-c2noc(C(C)(C)C)n2)ncc1C1CC1 [Example 15, tert-Butyl (2S)-2-[[2-(5-tert-butyl-1,2,4-oxadiazol-3-yl)-5-cyclopropylpyridin-4-yl]oxymethyl]pyrrolidine-1-carboxylate] | 1510 | −75.2 | – |
| CC(C)(C)OC(=O)N1CC[C@@H](Oc2cc(-c3noc(C(C)(C)C)n3)ncc2C2CC2)C1 [Example 16, tert-Butyl (3R)-3-[2-(5-tert-butyl-1,2,4-oxadiazol-3-yl)-5-cyclopropylpyridin-4-yl]oxypyrrolidine-1-carboxylate] | 315 | −103.1 | – |
| CC(C)(C)c1nc(-c2cc(OCc3cccc(S(C)(=O)=O)c3)c(C3CC3)cn2)no1 [Example 17, 5-tert-Butyl-3-[5-cyclopropyl-4-[(3-methylsulfonylphenyl)methoxy]pyridin-2-yl]-1,2,4-oxadiazole] | – | −49.9 | 2010 |
| Cc1nnc(C(C)(NC(=O)c2cc(OCC(F)(F)F)c(C3CC3)cn2)C2CNC2)o1 (stereo not shown) [Example 18, N-[1-(azetidin-3-yl)-1-(5-methyl-1,3,4-oxadiazol-2-yl)ethyl]-5-cyclopropyl-4-(2,2,2-trifluoroethoxy)pyridine-2-carboxamide] | – | −48.7 | 7210 |
| CCOC(=O)C(CC)(CC)NC(=O)c1cc(OCC2(C)COC2)c(C2CC2)cn1 [Example 19, Ethyl 2-[[5-cyclopropyl-4-[(3-methyloxetan-3-yl)methoxy]pyridine-2-carbonyl]amino]-2-ethylbutanoate] | 148 | 13 | – |
| Cc1nc(C(C)(CC2CC2)NC(=O)c2cc(OCC3(C)CC3(F)F)c(Cl)cn2)no1 (stereo not shown) [Example 20, 5-Chloro-N-[1-cyclopropyl-2-(5-methyl-1,2,4-oxadiazol-3-yl)propan-2-yl]-4-[(2,2-difluoro-1-methylcyclopropyl)methoxy]pyridine-2-carboxamide] | 420 | −150.8 | – |
| Cc1nc(C(C)(CC2CC2)NC(=O)c2cc(On3nnc4ccccc43)c(C(F)(F)F)cn2)no1 (stereo not shown) [Example 21, 4-(Benzotriazol-1-yloxy)-N-[1-cyclopropyl-2-(5-methyl-1,2,4-oxadiazol-3-yl)propan-2-yl]-5-(trifluoromethyl)pyridine-2-carboxamide] | 87 | −147.5 | – |
| CC(CC(N)=O)(NC(=O)c1cc(OCc2ccc(F)cn2)c(C2CC2)cn1)C1CC1 (stereo not shown) [Example 22, N-(4-Amino-2-cyclopropyl-4-oxobutan-2-yl)-5-cyclopropyl-4-[(5-fluoropyridin-2-yl)methoxy]pyridine-2-carboxamide] | 47.1 | −78.4 | – |
| Cc1nc([C@](C)(CC2CC2)NC(=O)c2cc(-c3ccc(F)nc3)c(OCc3ccccc3)cn2)no1 [Example 23, N-[(2S)-1-Cyclopropyl-2-(5-methyl-1,2,4-oxadiazol-3-yl)propan-2-yl]-4-(6-fluoropyridin-3-yl)-5-phenylmethoxypyridine-2-carboxamide] | 1030 | −87.7 | – |
